The record followed here is US8002614B2, “Microbiocidal control in the processing of meat-producing four-legged animals” (priority 2005, dated 2011).

This data set is classed as physicochemical. The text has this: In many high output meat packing plants, space to install the biocide feeder in an easily accessible location is not readily available. The smaller area required for a BCDMH feeder system relative to a DBDMH system, is advantageous with respect to installation flexibility. For example, because of higher bromine output, a plant utilizing BCDMH may utilize a smaller number of biocide feeders than a plant utilizing DBDMH feeders. Also, because each point of application of aqueous biocide in the plant requires a certain bromine residual in a certain flow of water, the much higher output of bromine from a BCDMH feeder to achieve the desired bromine residual, requires much less water flow to the feeder for BCDMH than DBDMH. Since the source of water and the feeder are often quite distant from each other, a need for providing a new line just for the feeder is disadvantageous and expensive. But, pursuant to this invention, oftentimes excess water supplied to existing equipment near the feeder can be employed thereby eliminating the need for installation of a new special water line to the feeder. In other words, since BCDMH requires less than half the water flow of DBDMH, in many situations this water source would have sufficient flow for BCDMH while that same flow would be insufficient for DBDMH. […]

As to `CC1(C)C(=O)N(Br)C(=O)N1Br` [DBDMH, 1,3-dibromo-5,5-dimethylhydantoin], the water solubility is given as 405 ppm.

In the case of `CC1(C)C(=O)N(Cl)C(=O)N1Br` [BCDMH, N,N′-bromochloro-5,5-dimethylhydantoin], the water solubility amounted to 890 ppm.
